This is an account of results in ChEMBL document CHEMBL1143069, “Methoxylation of 3',4'-aromatic side chains improves P-glycoprotein inhibitory and multidrug resistance reversal activities of 7,8-pyranocoumarin against cancer cells” (Bioorg Med Chem, 2008).

Active and inactive are the calls of the source. The calls are words filed in the database; no cut-off is given here.

For experiment [1], the system named is K562. The conditions noted are these: Homo sapiens.
Experiment [2] has as its system K562. The conditions noted are these: Homo sapiens. The source holds these as a separate data set.
The subject of experiment [3] is K562. The settings on record: Homo sapiens. The source holds these as a separate data set.
Experiment [4] has as its system HepG2. In words: Growth inhibition of human HepG2 cells after 72 hrs by MTT assay. In kind it is functional, cell-based. The conditions noted are these: HepG2, 72 h. On the technique in general: Formazan colour is commonly taken as a measure of viable cells.
Experiment [5] deals with HepG2. In words: Growth inhibition of doxorubicin resistant human HepG2 cells after 72 hrs by MTT assay. In kind it is functional, cell-based. The settings on record: HepG2, 72 h.
Experiment [6] has as its system K562. Description: Growth inhibition of human K562 cells after 72 hrs by SRB assay. In kind it is functional, cell-based. The settings on record: K562, 72 h.
Experiment [7] concerns K562. In words: Growth inhibition of doxorubicin-resistant human K562 cells after 72 hrs by SRB assay. In kind it is functional, cell-based. The conditions noted are these: K562, 72 h. A general note: The SRB assay estimates cell density from bound dye.
The test system of experiment [8] is K562. In words: Inhibition of human Pgp-ATPase activity in doxorubicin-resistant K562 cells. Type of experiment: cell-based.
The subject of experiment [9] is HepG2. Description: Inhibition of Pgp mediated Hoechst 33342 efflux in doxorubicin-resistant human HepG2 cells assessed as increase in cellular fluorescence of substrate at 5 uM. In kind it is cell-based. Details: scale not given: the % may be the effect or the level left.
Experiment [10] has as its system K562. In words: Inhibition of Pgp mediated Hoechst 33342 efflux in doxorubicin-resistant human K562 cells assessed as increase in cellular fluorescence of substrate at 5 uM. In kind it is cell-based. Details: scale not given: the % may be the effect or the level left.
For experiment [11], the system named is K562. Description: Effect on Pgp expression level in doxorubicin resistant human K562 cells at 20 uM after 72 hrs by Western blot. Type of experiment: functional, cell-based.
The subject of experiment [12] is KB-V1. Description: Effect on Pgp expression level in human KB V1 cells at 4 uM after 72 hrs by Western blot. Type of experiment: functional, cell-based. (In general: A western blot detects proteins with antibodies after separation by electrophoresis.)
For experiment [13], the system named is KB-V1. Description: Effect on Pgp expression level in human KB V1 cells at 20 uM after 72 hrs by Western blot. Type of experiment: functional, cell-based.
In experiment [14] the test system is HepG2. In words: Increase in monoclonal antibody UIC2 binding to human Pgp in doxorubicin-resistant human HepG2 cells. Type of experiment: cell-based.
Experiment [15] is described as follows: Growth inhibition of human KB3-1 cells after 72 hrs by MTT assay. Type of experiment: functional, cell-based. The conditions noted are these: KB 3-1, 72 h.
The nature of experiment [16]: Growth inhibition of human KB V1 cells after 72 hrs by MTT assay. Type of experiment: functional, cell-based. The settings on record: KB-V1, 72 h.
In experiment [17] the test system is HepG2. In words: Effect on Pgp expression level in doxorubicin resistant human HepG2 cells at 4 uM after 72 hrs by Western blot. Type of experiment: functional, cell-based.
The test system of experiment [18] is HepG2. Description: Effect on Pgp expression level in doxorubicin resistant human HepG2 cells at 8 uM after 72 hrs by Western blot. In kind it is functional, cell-based.
In experiment [19] the test system is HepG2. In words: Effect on Pgp expression level in doxorubicin resistant human HepG2 cells at 20 uM after 72 hrs by Western blot. Type of experiment: functional, cell-based.
Experiment [20] deals with K562. In words: Effect on Pgp expression level in doxorubicin resistant human K562 cells at 4 uM after 72 hrs by Western blot. Type of experiment: functional, cell-based.
Experiment [21] deals with K562. Description: Effect on Pgp expression level in doxorubicin resistant human K562 cells at 8 uM after 72 hrs by Western blot. In kind it is functional, cell-based.
Experiment [22] relates to HepG2. Description: Inhibition of Pgp mediated Rh123 efflux in doxorubicin-resistant human HepG2 cells assessed as increase in cellular fluorescence of substrate at 10 uM. Type of experiment: cell-based. Also noted: scale not given: the % may be the effect or the level left.
In experiment [23] the test system is K562. In words: Inhibition of Pgp mediated Rh123 efflux in doxorubicin-resistant human K562 cells assessed as increase in cellular fluorescence of substrate at 10 uM. Type of experiment: cell-based. Also noted: scale not given: the % may be the effect or the level left.
In experiment [24] the test system is HepG2. In words: Inhibition of Pgp mediated Hoechst 33342 efflux in doxorubicin-resistant human HepG2 cells assessed as increase in cellular fluorescence of substrate at 10 uM. Details: scale not given: the % may be the effect or the level left. Type of experiment: cell-based.
Experiment [25] relates to K562. In words: Inhibition of Pgp mediated Hoechst 33342 efflux in doxorubicin-resistant human K562 cells assessed as increase in cellular fluorescence of substrate at 10 uM. In kind it is cell-based. Details: scale not given: the % may be the effect or the level left.

In general, Km refers to the concentration of substrate that gives half-maximal velocity. In the case of `CC(=O)[C@H]1CC[C@H]2[C@@H]3CCC4=CC(=O)CC[C@]4(C)[C@H]3CC[C@]12C`, the Km in [1] was determined as 6.57 µM; in experiment [2] it was 9.97 µM.

Consider `COc1ccc(CCN(C)CCC[C@](C#N)(c2ccc(OC)c(OC)c2)C(C)C)cc1OC`, for which the Km in experiment [3] was 0.89 µM; in experiment [2], 0.7 µM.

In general, IC50 refers to the point on the concentration scale where inhibition reaches its midpoint. For `COc1ccc(/C=C/C(=O)OC2c3c(ccc4ccc(=O)oc34)OC(C)(C)C2OC(=O)/C=C/c2ccc(OC)cc2)cc1` (racemic), the IC50 came out at 55200 nM in experiment [4], 72.6 µM in experiment [5], 67.6 µM in experiment [6] and 81 µM in [7].

Take `COc1ccc(/C=C/C(=O)OC2c3c(ccc4ccc(=O)oc34)OC(C)(C)C2OC(=O)/C=C/c2ccc(OC)c(OC)c2)cc1OC` (racemic): the outcome in [8] and in experiment [14] was Active. The Activity in experiment [9] and in experiment [10] was 200% throughout. The outcome in experiment [11], in experiment [12], in experiment [13], in experiment [17], in [18] and in experiment [19] was inactive. The result in experiment [20] and in [21] was inactive. Also, the IC50 amounted to 61.7 µM in experiment [15]; 32.3 µM in [16]; 54700 nM in [4]; 76.3 µM in [5]; 54.4 µM in experiment [6]; 70 µM in [7].

Take `CC1(C)Oc2ccc3ccc(=O)oc3c2C(OC(=O)/C=C/c2ccccc2)C1OC(=O)/C=C/c1ccccc1` (racemic): in experiment [8], the outcome was Active. Further, the Activity worked out at 50% in [22], 20% in experiment [23], 100% in experiment [24] and 100% in [25]. Moreover, the result in [14] was inactive.

`COc1ccc(CC(N)C(=O)N[C@H]2[C@@H](O)[C@H](n3cnc4c(N(C)C)ncnc43)O[C@@H]2CO)cc1` (single isomer, unassigned) [PUROMYCIN]: the IC50 in experiment [15] stood at 0.21 µM; in experiment [16], 79.3 µM; in [4], 230 nM; in experiment [5], 83.9 µM; in [6], 0.22 µM; in [7], 26.8 µM.

As for `COc1cccc2c1C(=O)c1c(O)c3c(c(O)c1C2=O)C[C@@](O)(C(=O)CO)C[C@@H]3O[C@H]1C[C@H](N)[C@H](O)[C@H](C)O1` [DOXORUBICIN], the values for the IC50 in [15] and in experiment [16] were 0.18 µM and 32 µM, respectively.

Consider `CC(=O)O[C@H]1C(=O)[C@@]2(C)[C@H]([C@H](OC(=O)c3ccccc3)[C@]3(O)C[C@H](OC(=O)[C@H](O)[C@@H](NC(=O)c4ccccc4)c4ccccc4)C(C)=C1C3(C)C)[C@]1(OC(C)=O)CO[C@@H]1C[C@@H]2O` [PACLITAXEL], for which the half-inhibitory concentration (IC50) came out at 0.002 µM in experiment [15]; 8 µM in [16]; 7 nM in experiment [4]; 4.15 µM in experiment [5]; 4.14 µM in experiment [7].

Take `CC[C@]1(O)C[C@@H]2CN(CCc3c([nH]c4ccccc34)[C@@](C(=O)OC)(c3cc4c(cc3OC)N(C)[C@H]3[C@@](O)(C(=O)OC)[C@H](OC(C)=O)[C@]5(CC)C=CCN6CC[C@]43[C@@H]65)C2)C1` [VINBLASTINE]: the half-inhibitory concentration (IC50) amounted to 0.00011 µM in [15]; 1.04 µM in experiment [16]; 0.07 nM in experiment [4]; 0.44 µM in [5]; 0.00088 µM in [6]; 0.17 µM in [7].
